Measurements from US12649750B2, “Macrocyclic compounds, compositions, and methods of using thereof” (Sionna Therapeutics Inc., priority 2022, dated 2026).

These molecules were tested against T1, NBD1 (Homo sapiens, UniProt P13569) (assay: Aggregation analysis using differential static light scattering (DSLS), thermal stability of NBD1 (ΔTagg)). Conditions: ΔTagg versus DMSO control, NBD1 0.2 mg/ml.
T1 construct: Purified recombinant NBD1 was produced using previously described methods; made in house
Type: binding
Experimental: Example 386. Aggregation Analysis Using Differential Static Light Scattering (DSLS)
Purified recombinant NBD1 was produced using previously described methods (A. Schmidt, J. L. Mendoza, P. J. Thomas (2011) Biochemical and Biophysical Approaches to Probe CFTR Structure (365-376) M. D. Amaral, K. Kunzelmann (eds.), Cystic Fibrosis, Methods in Molecular Biology 741, Springer Science+Business Media). The effect of test compounds on thermal stability of NBD1 was evaluated by differential static light scattering (DSLS) using the Harbinger Stargazer-384 instrument (Epiphyte Three, Toronto, Canada). Test compounds were dissolved and diluted to desired concentrations in 100% DMSO. The compounds or DMSO controls (100 nL) were stamped into wells of a […] low volume optical plate (Corning Inc., Corning, NY) using the Echo 555 acoustic liquid handler (Labcyte Inc., San Jose, CA).
NBD1 protein was diluted to 0.2 mg/ml in S200 buffer (50 mM Tris-HCl, 150 mM NaCl, 5 mM MgCl2, 2 mM ATP, 2 mM DTT, pH7.6) containing 1% glycerol. 10 uL of protein solution was aliquoted into the 384-well plate harboring the test compounds and 10 uL mineral oil was overlaid onto the protein solution, using the epMotion robotic liquid handler (Eppendorf North America, Hauppauge, NY). After placing into the Stargazer instrument, the plate was heated at 1° C. per minute to 70° C. Images were captured from 25° C. to 70° C. every 0.5° C. At the end of the experiment run, instrument software integrated image files and analyzed data automatically. A […] regression curve was generated for each well, representing the increase in light scattering over time. A temperature of aggregation (Tagg) was calculated based on the inflection point of the curve. To better compare data across experiments the average Tagg for DMSO control wells was calculated and subtracted from values for wells containing compounds to obtain a “ΔTagg” value. These ΔTagg values reflect stabilizing efficacy of the compounds. As set forth in Table 2 below, an ΔTagg value less than or equal to 5° C. is marked “A”; a value above 5° C. and less than or equal to 10° C. is marked “B”; a value greater than 10° C. and less than or equal to 25° C. is marked “C”.

T1 sequence (P13569 423-646 limits assumed): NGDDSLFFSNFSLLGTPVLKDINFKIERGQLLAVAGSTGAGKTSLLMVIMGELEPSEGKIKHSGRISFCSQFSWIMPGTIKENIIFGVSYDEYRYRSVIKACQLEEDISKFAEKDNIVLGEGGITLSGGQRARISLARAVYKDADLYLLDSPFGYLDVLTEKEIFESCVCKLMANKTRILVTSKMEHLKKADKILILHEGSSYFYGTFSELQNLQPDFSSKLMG

SMILES	DSLS 3D (100 μM ΔT)
Cn1nc2nc1-c1cc(ccc1F)Oc1c(F)cc3[nH]ccc3c1CCS(=O)(=O)CC(C)(C)CCCC2(C)c1cccc(C(O)CO)c1 (single isomer, unassigned) [Compound 90A, 1-[3-(22,28-difluoro-3,6,10,10-tetramethyl-12,12-dioxo-24-oxa-12λ6-thia-3,4,19,30-tetrazapentacyclo[23.3.1.12,5.015,23.016,20]triaconta-1(29),2(30),4,15,17,20,22,25,27-nonaen-6-yl)phenyl]ethane-1,2-diol]	C (a value greater than 10 °C and less than or equal to 25 °C is marked “C”)
Cn1nc2nc1-c1cc(ccc1F)Oc1c(F)cc3[nH]ccc3c1CCS(=O)(=O)CC(C)(C)CCCC2(C)c1cccc(C(O)CO)c1 (single isomer, unassigned) [Compound 90B, 1-[3-(22,28-difluoro-3,6,10,10-tetramethyl-12,12-dioxo-24-oxa-12λ6-thia-3,4,19,30-tetrazapentacyclo[23.3.1.12,5.015,23.016,20]triaconta-1(29),2(30),4,15,17,20,22,25,27-nonaen-6-yl)phenyl]ethane-1,2-diol]	A (an ΔTagg value less than or equal to 5 °C is marked “A”)
CC(Cc1cccc(C2(CNCC(F)F)CCCC(C)(C)CS(=O)(=O)CCc3c(c(F)cc4[nH]ccc34)Oc3ccc(F)c(c3)-c3nc2nn3C)c1)C(=O)O (single isomer, unassigned) [Compound 137A, 3-[3-[6-[(2,2-difluoroethylamino)methyl]-22,28-difluoro-3,10,10-trimethyl-12,12-dioxo-24-oxa-12λ6-thia-3,4,19,30-tetrazapentacyclo[23.3.1.12,5.015,23.016,20]triaconta-1(29),2(30),4,15,17,20,22,25,27-nonaen-6-yl]phenyl]-2-methyl-propanoic Acid]	C (a value greater than 10 °C and less than or equal to 25 °C is marked “C”)
C[C@@H](Cc1cncc(C2(C)CCCC(C)(C)CS(=O)(=O)CCc3c(c(F)cc4[nH]ccc34)Oc3ccnc(c3)-c3nc2nn3C)c1)C(=O)O (single isomer, unassigned) [Compound 299A]	A (an ΔTagg value less than or equal to 5 °C is marked “A”)
C[C@@H](Cc1cncc(C2(C)CCCC(C)(C)CS(=O)(=O)CCc3c(c(F)cc4[nH]ccc34)Oc3ccnc(c3)-c3nc2nn3C)c1)C(=O)O (single isomer, unassigned) [Compound 299B]	B (a value above 5 °C and less than or equal to 10 °C is marked “B”)
C[C@@H](Cc1cncc(C2(C)CCCC(C)(C)CS(=O)(=O)CCc3c(c(F)c(F)c4[nH]ccc34)Oc3ccnc(c3)-c3nc2nn3C)n1)C(=O)O (single isomer, unassigned) [Compound 300A]	A (an ΔTagg value less than or equal to 5 °C is marked “A”)
C[C@@H](Cc1cncc(C2(C)CCCC(C)(C)CS(=O)(=O)CCc3c(c(F)c(F)c4[nH]ccc34)Oc3ccnc(c3)-c3nc2nn3C)n1)C(=O)O (single isomer, unassigned) [Compound 300B]	A (an ΔTagg value less than or equal to 5 °C is marked “A”)
Cn1nc2nc1-c1cc(ccc1F)[S+]([O-])c1c(F)cc3[nH]ccc3c1CCS(=O)(=O)CC(C)(C)CCC[C@]2(C)c1cccc([C@H](O)CO)c1 (single isomer, unassigned) [Compound 302B]	B (a value above 5 °C and less than or equal to 10 °C is marked “B”)
Cn1nc2nc1-c1cc(ccc1F)[S+]([O-])c1c(F)c(F)c3[nH]ccc3c1CCS(=O)(=O)CC(C)(C)CCC[C@]2(C)c1cccc(CC2(C(=O)O)CC2)c1 (single isomer, unassigned) [Compound 303B]	A (an ΔTagg value less than or equal to 5 °C is marked “A”)
Cn1nc2nc1-c1cc(ccn1)[S+]([O-])c1c(F)c(F)c3[nH]ccc3c1CCS(=O)(=O)CC(C)(C)CCC[C@]2(C)c1cccc(CC2(C(=O)O)CC2)c1 (single isomer, unassigned) [Compound 309]	B (a value above 5 °C and less than or equal to 10 °C is marked “B”)
